Experiments:
Type in all cases: cell-based
Details in all cases: after 10, 20, 40 and 60 minutes at all dilutions 1:100, 1:200, 1:400, 1:800
Staphylococcus aureus = experiment: Antimicrobial screening by agar dilution, St. Aereus
Procedure: (§1) The antibacterial properties of the synthesized compound, ethyl 2-[9-(2-hydroxypyridin-3-yl)-3,6-diphenyl-1,8-dioxo-3,4,9,10-tetrahydroacridine-10-yl]-acetate, were studied by the method of agar dilution. Test solutions of each compound was prepared in concentration of 1% using dimethylformamide as a solvent then they are diluted in physiological solution to obtain the final experimental dilutions 1:100, 1:200, 1:400, 1:800. The effect of these substances are compared with furacillin in a controllable study. The testing microbes used were gram positive bacteria Staphylococcus aureus, gram negative bacteria Pseudomonas aeruginosa and Escherichia coli and Candida albicans fungus. The experiments used for this survey were meat-pentonlu agar (EPA) for cultivation of bacteria and Saburo environment for the fungus. Each experiment used 1 mL of test solution on each plate […]. Two drops of emulsified with microbes feel were added. All experimental samples were taken from the agar after 10, 20, 40, 60 minutes in the environment on the basis of Patrk planted. The bacteria were cultivated at a temperature of 37° C. for 1 day and the mushroom was kept in a thermostat for 2 hours at a temperature of 28° C. Then results were checked.

Candida albicans = experiment: Antimicrobial screening by agar dilution, Candida albicans
Procedure: as §1

Escherichia coli = experiment: Antimicrobial screening by agar dilution, E. Coli
Procedure: as §1

Pseudomonas aeruginosa = experiment: Antimicrobial screening by agar dilution, Ps. aeruginosa
Procedure: as §1

Measured: inhibition activity (in words)

CCOC(=O)CN1C2=C(C(=O)CC(c3ccccc3)C2)C(c2cccnc2O)C2=C1CC(c1ccccc1)CC2=O (stereo not shown) [ethyl 2-[9-(2-hydroxypyridin-3-yl)-3,6-diphenyl-1,8-dioxo-3,4,9,10-tetrahydroacridine-10-yl]-acetate]
highest inhibition activity: all assays above

Source: patent US12291514B1, “Ethyl 2-[9-(2-hydroxypyridin-3-yl)-3,6-diphenyl-1,8-dioxo-3,4,9,10-tetrahydroacridine-10-yl]-acetate as an antimicrobial compound” (KING FAISAL UNIVERSITY, priority 2023, dated 2025)
